Experimental data published in US8551984B2, “Aminopyrimidines as SYK inhibitors” (Merck Sharp & Dohme Corp., priority 2009, dated 2013).

biological target: rhSYK (Homo sapiens, UniProt P43405); assay: biochemical; conditions: not given

SMILES | IC50 [nM]
Cc1cc(Nc2nccc(C(F)(F)F)n2)cc(-c2cnc([C@]3(O)CC[C@@H](C(N)=O)C(C)(C)C3)s2)c1 [Example 119-131] | < 100
COc1ccnc(Nc2cc(C)cc(-c3cnc([C@@]4(O)CC[C@H](C(=O)NCC#N)C(C)(C)C4)s3)c2)n1 [Example 119-133] | < 100
COc1ccnc(Nc2cc(C)cc(-c3cnc([C@@]4(O)CC[C@H](C(=O)NCc5cccnc5)C(C)(C)C4)s3)c2)n1 [Example 119-134] | < 100
Cc1cc(Nc2nccc(C)n2)cc(-c2cnc([C@@]3(O)CC[C@H](C(=O)NCCCN4CCCC4=O)C(C)(C)C3)s2)c1 [Example 119-135] | < 100
Cc1cc(Nc2nccc(C(F)(F)F)n2)cc(-c2cnc([C@@]3(O)CC[C@H](C(=O)Nc4cccnc4)C(C)(C)C3)s2)c1 [Example 119-136] | < 100
Cc1cc(Nc2nccc(C(F)(F)F)n2)cc(-c2cnc([C@]3(O)CC[C@@H](C(=O)N4CCc5cc(O)c(O)cc5C4)CC3)s2)c1 [Example 119-138] | < 100
COc1cccc(N2CCN(C(=O)C3CCC(O)(c4ncc(-c5cc(C)cc(Nc6nccc(C(F)(F)F)n6)c5)s4)CC3)CC2)c1 (stereo not shown) [Example 119-139] | < 100

The next lines start with the values.

IC50 [nM] | SMILES
< 100 | COCc1cc(Nc2nccc(C(F)(F)F)n2)cc(-c2cnc(C3(O)CCC(C(N)=O)C(C)C3)s2)c1 (stereo not shown) [Example 119-142]
< 100 | COCc1cc(Nc2nccc(C(F)(F)F)n2)cc(-c2cnc([C@@]3(O)CC[C@H](C(N)=O)C(C)(C)C3)s2)c1 [Example 119-143]
< 100 | CC1(C)C[C@@](O)(c2ncc(-c3cc(Cl)cc(Nc4nccc(C(F)(F)F)n4)c3)s2)CC[C@@H]1C(N)=O [Example 119-144]
< 100 | NC(=O)[C@H]1CC[C@](O)(c2ncc(-c3cc(Cl)cc(Nc4nccc(C(F)(F)F)n4)c3)s2)CC1 [Example 119-145]
< 100 | Cc1cc(Nc2nccc(C(F)(F)F)n2)cc(-c2cnc([C@]3(O)CC[C@@H](C(=O)NC(CO)CO)CC3)s2)c1 [Example 191-33]
< 100 | Cc1cc(Nc2nccc(C(F)(F)F)n2)cc(-c2cnc(C3(O)CCC(C(=O)NCc4cccnc4)CC3)s2)c1 (stereo not shown) [Example 191-52]
< 100 | Cc1cc(Nc2nccc(C(F)(F)F)n2)cc(-c2cnc([C@]3(O)CC[C@@H](C(=O)NCc4ccncc4)CC3)s2)c1 [Example 191-53]
< 100 | CC1(C)CC(O)(c2ncc(-c3cc(CO)cc(Nc4nccc(C(F)(F)F)n4)c3)s2)CCC1C(N)=O (stereo not shown) [Example 191-141]

system: PGD2; assay: not given; conditions: dosed intranasally, phase I/II study, allergic rhinitis; cited from earlier work

SMILES | decrease in PGD2
Oc1cccc(Nc2ncc(F)c(Nc3cccc(O)c3)n2)c1 [Example R112] | statistically significant decrease
